According to patent US6921531B2, “Administering bifunctional molecules containing a drug moiety and presenter protein ligand for therapy” (The Board of Trustees of the Leland Stanford Junior …, priority 1998, dated 2005):
Where two headings read alike, the source gives them in different places.

Key:
FKBP12 = target: T1, FKBP12 (Homo sapiens, UniProt P62942); test: Binding constants (Kd) for FKBP12, isothermal titration calorimetry
T1 construct: GST (N, cleaved yes); made in house
Excerpt: SLF was synthesized according to the procedures of Holt et al. [J. Am. Chem. Soc. 1993, 115, 9925]. SLF was coupled to the N-terminus of the resin-bound protected pYEEI peptide using PyBOP. The heterodimeric SLFpYEEI was deprotected and cleaved from the Novasyn TGT resin (Calbiochem-Novabiochem, San Diego, Ca.) using 25% trifluoroacetic acid and 2.5% triisopropyl silane in methylene chloride and the desired product was isolated using reverse phase HPLC. C. […] Recombinant FKBP12 was expressed as a GST fusion protein and bound to glutathione beads (Pharmacia). Using thrombin (Sigma) to cleave the GST-FKBP12 fusion protein at a thrombin cleavage site in the linker between GST and FKBP12, recombinant FKBP12 could be released from the glutathione beads where GST remained bound. FKBP52 was expressed with a tag of six histidine residues at its N-terminus (pET28c expression vector, Novagen). The recombinant protein was bound via the histidine tag to Ni^2+ NTA agarose beads (Qiagen), washed extensively and eluted with imidazole. […]
(§1) SLFpYEEI and FKpYEEI are bifunctional molecules that can bind FKBP12 and FKBP52 as well as the Fyn SH2 domain (FIG. 2). The binding constants (Kd values) of the bifunctional molecules for the three proteins were measured using isothermal titration calorimetry (ITC) (Table 1).

Fyn SH2 domain = target: T2, Fyn SH2 domain (Homo sapiens, UniProt P06241); test: Binding constants (Kd) for Fyn SH2 domain, isothermal titration calorimetry; details: ITC
T2 construct: The Fyn, Lck and PLC SH2 domains were expressed in bacteria as GST fusion proteins; GST (cleaved yes); made in house; host or cells: bacteria
T2 sequence (P06241 149-246 limits assumed): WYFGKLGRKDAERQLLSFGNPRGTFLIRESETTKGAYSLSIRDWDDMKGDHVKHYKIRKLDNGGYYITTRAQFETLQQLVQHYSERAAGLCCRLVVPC
Procedure: as §1
FIG. 6 is a graph of the competition binding curves for the Fyn SH2 domain and FKpYEEI as well as the Fyn SH2 domain and the peptide pYEEI in the absence and the presence of FKBP52. Fyn SH2 domain was incubated with peptide beads and increasing concentrations of FKpYEEI in the absence or presence of FKBP52. Specifically, in this assay, in 100 L binding reactions, radioactively labeled Fyn SH2 domain (200 nM) was incubated with 7.5 L of a 1:1 pYEEI bead slurry. Increasing concentrations of FKpYEEI or pYEEI (0.1-20.0 M) were added in the presence or absence of FKBP52 (4.5 M). The binding reactions were rotated at room temperature for 2 hours, centrifuged and analysed as described above. Half maximal binding (IC50) is observed at 750 riM FKpYEEI in the absence of FKBP52. […] Using ITC, the binding constant (Kd) for Fyn SH2 domain binding to the FKpYEEI-FKBP52 complex was determined.
FIG. 13 is a graph of the competition binding curves for the Fyn SH2 domain and SLFpYEEI in the absence and the presence of FKBP12. Fyn SH2 domain was incubated with increasing concentrations of SLFpYEEI in the absence or presence of FKBP12. In this assay, in 100 L binding reactions, radioactively labeled Fyn SH2 domain (200 nM) was incubated with 7.5 L of a 1:1 pYEEI bead slurry. Increasing concentrations of SLFpYEEI (0.1-20.0 M) were added in the presence or absence of FKBP12 (20 M). The binding reactions were rotated at room temperature for 2 hours, centrifuged and analysed as described above. […] This effect was confirmed by ITC.

[1] = ligand alone, no presenter protein, read-out: Binding constant (Kd) for Fyn SH2 domain, free ligand

T1 sequence (P62942 whole entry, species assumed): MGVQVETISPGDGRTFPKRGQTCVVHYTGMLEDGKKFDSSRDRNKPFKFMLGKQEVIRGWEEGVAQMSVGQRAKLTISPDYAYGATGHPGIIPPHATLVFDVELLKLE

Question: Which Kd (FKBP12) does the source give for `CC[C@H](C)[C@H](NC(=O)[C@H](CCC(=O)O)NC(=O)[C@H](CCC(=O)O)NC(=O)[C@H](Cc1ccc(OP(=O)(O)O)cc1)NC(=O)OCC[C@@H]1/C=C(\C)C[C@H](C)C[C@H](OC)[C@H]2O[C@@](O)(C(=O)C(=O)N3CCCC[C@H]3C(=O)O[C@H](/C(C)=C/[C@@H]3CC[C@@H](O)[C@H](OC)C3)[C@H](C)[C@@H](O)CC1=O)[C@H](C)C[C@@H]2OC)C(=O)O` [FKpYEEI] here?
Answer: 45 nM

Question: And the Kd (Fyn SH2 domain; in complex with FKBP52, read-out: Kd for Fyn SH2 domain binding to the FKpYEEI-FKBP52 complex)?
Answer: 130 nM

Question: And the Kd (Fyn SH2 domain; [1])?
Answer: 520 nM

Question: What does the source list for `CC[C@H](C)[C@H](NC(=O)[C@H](CCC(=O)O)NC(=O)[C@H](CCC(=O)O)NC(=O)[C@H](Cc1ccc(OP(=O)(O)O)cc1)NC(=O)COc1cccc([C@@H](CCc2ccc(OC)c(OC)c2)OC(=O)[C@@H]2CCCCN2C(=O)C(=O)C(C)(C)CC)c1)C(=O)O` [SLFpYEEI]?
Answer: Kd (FKBP12): 61 nM; Kd (Fyn SH2 domain; [1]): 183 nM
